{"source": "patent US9474278B2", "about": "“Biocidal compositions and methods of use” (Dow Global Technologies LLC, priority 2011, dated 2016)", "key": {"[1]": {"tested_on": "Staphylococcus aureus ATCC 6538, Enterobacter aerogenes ATCC 13048, and Escherichia coli ATCC 8739", "assay": "Biocidal efficacy: minimum biocide concentration for 99.9% bacterial kill in inoculated salt solution with re-challenges", "format": "cell-based", "settings": "alone or in the combination, 37° C.", "experimental": "(§1) The synergy indexes reported in the following examples are calculated using the following equation: Synergy Index=Ca/CA+Cb/CB\nCa: Concentration of biocide A required to achieve a certain level of bacterial kill when used in combination with B.\nCA: Concentration of biocide A required to achieve a certain level of bacterial kill when used alone.\nCb: Concentration of biocide B required to achieve a certain level of bacterial kill when used in combination with A.\nCB: Concentration of biocide B required to achieve a certain level of bacterial kill when used alone.\n(§2) A synergy index (SI) of 1 indicates additivity, a synergy index of less than 1 indicates synergy, and a synergy index greater than 1 indicates antagonism.\nA sterile salt solution (0.2203 g of CaCl2, 0.1847 g of MgSO4, and 0.2033 g of NaHCO3 in 1 L water) is inoculated with approximately 10^7 CFU/mL of Staphylococcus aureus ATCC 6538, Enterobacter aerogenes ATCC 13048, and Escherichia coli ATCC 8739. Aliquots of the cell suspension are then treated with THPS, BIT, and combinations of these actives at selected concentrations and incubated at 37° C. for 14 days. After incubation for 24 hours, 3 days, and 7 days, the aliquots are re-challenged with bacterial suspension of the same bacteria at a final bacterial concentration of 10^5 CFU/mL. The biocidal efficacy is measured at 2 hours and 14 days by determining the minimum biocide concentration for 99.9% bacterial kill in the aliquots. Synergy Index is then calculated. Table 1 and 2 summarize the efficacy of each biocide and their combinations at 2 hour and 14 day treatment time respectively, and the resulting Synergy Index of each combination."}, "[2]": {"tested_on": "Candida albican, ATCC #10231", "assay": "96 well micro titer plate MIC / synergy assay in SDB", "format": "cell-based", "settings": "alone or in the combination, 48 hours", "experimental": "as §1, §2"}}, "data": [{"compound": "O=c1[nH]sc2ccccc12", "note": "[BIT, 1,2-benzisothiazolin-3-one]", "values": [{"measurement": "Concentration (ppm active) for 99.9% bacterial kill in 2 hours, BIT", "setting": "[1]; BIT concentration, 2 hour treatment", "value": ">300", "unit": "ppm active"}, {"measurement": "Concentration (ppm active) for 99.9% bacterial kill in 14 days, BIT", "setting": "[1]; BIT concentration, 14 day treatment, re-challenged at 24 hours, 3 days, 7 days", "value": 150, "unit": "ppm active"}]}, {"compound": "Cn1sc2ccccc2c1=O", "note": "[MBIT, 2-methyl-1,2-benzisothiazolin-3-one]", "values": [{"measurement": "Minimum Inhibitory Concentration against Candida albican (ppm), MBIT", "setting": "[2]; MBIT concentration", "value": 0.375, "unit": "ppm"}]}, {"compound": "tetrakis (hydroxymethyl) phosphonium sulfate [THPS]", "values": [{"measurement": "Concentration (ppm active) for 99.9% bacterial kill in 2 hours, THPS", "setting": "[1]; THPS concentration, 2 hour treatment", "value": 38, "unit": "ppm active"}, {"measurement": "Concentration (ppm active) for 99.9% bacterial kill in 14 days, THPS", "setting": "[1]; THPS concentration, 14 day treatment, re-challenged at 24 hours, 3 days, 7 days", "value": ">300", "unit": "ppm active"}, {"measurement": "Minimum Inhibitory Concentration against Candida albican (ppm), THPS", "setting": "[2]; THPS concentration", "value": 1000, "unit": "ppm"}]}]}
